Data set [1] can be described thus: Delivery vehicle size and polydispersity by dynamic light scattering. Format: physicochemical. As to conditions: DLS in PBS; peptoid:DSPC:Cholesterol:DMG-PEG2000 weight ratio 20:1.79:7.16:1.84, mRNA. The procedure, abridged:
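LNPs made by microfluidic mixing of ethanolic peptoid/DSPC/cholesterol/DMG-PEG2000 (20:1.79:7.16:1.84 by weight) with mRNA in 10 mM citrate pH 5.0 at 1:3 by volume, then dialyzed overnight at 4 °C against tris-sucrose pH 7.4. Size and PDI read by dynamic light scattering in PBS.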

The next data set concerns mRNA. Nature of the data set: mRNA encapsulation (modified Quant-iT RiboGreen assay). As to conditions: RiboGreen, without vs with Triton X-100. Format: physicochemical. The procedure, abridged: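 Peptoid nanoparticles were incubated with Triton X-100 for 10 min to release entrapped mRNA, then mixed with RiboGreen reagent and read by fluorescence (ex 485 nm/em 530 nm). Percent encapsulation was derived from the ratio of fluorescence without versus with Triton X-100.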

The test system of the next data set is firefly luciferase. Nature of the data set: In vivo firefly luciferase expression after intravenous injection of fLuc mRNA delivery vehicles (IVIS imaging). On the set-up: species or system female Balb/c mice. As to conditions: mice, 2.5 ug fLuc mRNA intravenously, 6 hours post-injection. The procedure, abridged:
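Female Balb/c mice (6-8 weeks) given 2.5 ug fLuc mRNA in Nutshells IV. At 6 hours, IP D-luciferin (30 mg/mL, 10 μL/g) under isoflurane; IVIS imaging 10 minutes later, then harvested organs imaged ex vivo. Read-out: total photon flux in regions of interest.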

For another data set, the system named is hEPO. The experiment in a line: Quantification of hEPO in serum after IV injection of mRNA (Human EPO ELISA). In kind it is in vivo. The note with it: Balb/c mice, 2.5 μg mRNA IV, serum after 6 hours. An outline of the steps: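 Balb/c mice received 2.5 μg mRNA encoding human EPO by IV injection; serum was collected after 6 hours. hEPO was measured by sandwich ELISA (biotin-conjugate, streptavidin-HRP, TMB, A450) against kit standards (mIU/mL) and an external standard (ng/mL), with values interpolated and corrected for dilution.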
(In general: ELISA stands for enzyme-linked immunosorbent assay.)

Data set [2] is described as follows: Peptoid quantity remaining in liver by HPLC-TOF mass spectrometry. As to conditions: liver homogenate. Format: in vivo. As for the experimental part: Peptoid quantity in liver was determined via high-performance liquid chromatography coupled with time-of-flight mass spectrometer (HPLC-TOF). The entire liver was weighed, and then two sections were isolated using a provided biopsy punch for liver homogenization. Liver homogenate sample was prepared by resuspending 20 mg liver tissue in 400 μL extraction solvent (IPA/MeOH=8/2) containing an internal standard (400 pg/μL) followed by bead homogenization (45 sec per cycle for 3-4 cycles). Homogenized samples were centrifuged at 12,000 rpm for 8 min at 6 °C. The resulting supernatant was collected and stored at −20 °C for further LC analysis. 5 μL of the resulting supernatant sample from solid or liquid tissue was injected into a BEH C8 column on an Agilent 1290 Infinity II liquid chromatograph coupled with an Agilent 6230 LC-TOF system. Concentrations of peptoids were determined by a linear calibration curve (linear range:0.2-50 μg/g for solid tissue). Standard calibration curve solutions were prepared by spiking untreated liver followed by homogenization and centrifugation.

For another data set, the system named is luciferase. Nature of the data set: Luciferase expression after local (intramuscular or subcutaneous) administration of mRNA. In kind it is in vivo. The note with it: mRNA 0.01 mpk, 6 hours; for IM Flux: intramuscular; for SC Flux: subcutaneous. The procedure, abridged: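 Female Balb/c mice (6-8 weeks) received fLuc mRNA in aminolipidated peptoid Nutshells at 0.01 mpk subcutaneously or intramuscularly, or 0.1 mpk intratumorally. At 6 hours, anesthetized mice were given D-luciferin IP and imaged 10 minutes later; harvested organs were also imaged and total photon flux quantified in regions of interest.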

This is an account of results in patent publication US20260373248A1, “DEGRADABLE PEPTOIDS” (Medici Therapeutics, Inc., priority 2023, published 2026).

Non-standard residues stand in square brackets, D forms with d. Residues, ends and D or L forms follow the SMILES beside them. *: point of attachment. Gly(N-(3-decanoyloxypropyl)) = CCCCCCCCCC(=O)OCCCNCC(=O)O; N(3-lauroyloxypropyl)Gly = CCCCCCCCCCCC(=O)OCCCNCC(=O)O; Gly(N-3-morpholinopropyl) = O=C(O)CNCCCN1CCOCC1; N(2-ethylhexyl)Gly = CCCCC(CC)CNCC(=O)O; N(CH(CH2OH)2)Gly = O=C(O)CNC(CO)CO; For = O=C*

As for `CCCCCCCCCCCC(=O)OCCCN(CC(=O)N(CC(=O)N(CC(=O)N(CCCn1ccnc1)CC(=O)N(CC(=O)N(CC(=O)N(CCCOC(=O)CCCCCCCCCCC)CC(=O)N(CC(N)=O)CC(CC)CCCC)Cc1ccco1)CC(CC)CCCC)CC(CC)CCCC)Cc1ccco1)C(=O)CN(C=O)CC(CC)CCCC` (stereo not drawn) [Compound 100], in data set [1], the PDI was determined as 0.103 and the “Particle Size” value was determined as 109.3 nm. In addition, the “mean percent encapsulation of RNA” value with mRNA was determined as 68.4%. For the same compound, the “Total Flux” value with firefly luciferase worked out at 2.32E+08 p/s. Also, the hEPO in the data set on hEPO was 59.4 ng/mL. Besides, the “% of injected dose remaining in liver” value in data set [2] worked out at 19.76%. Besides, in the data set with luciferase, the “IM Flux” value amounted to 4.86E+07 p/s and the “SC Flux” value stood at 6.16E+07 p/s.

As to `CCCCCCCCCC(=O)OCCCN(CC(N)=O)C(=O)CN(CCCOC(=O)CCCCCCCCC)C(=O)CN(CC(CC)CCCC)C(=O)CN(CCCOC(=O)CCCCCCCCC)C(=O)CN(CCCOC(=O)CCCCCCCCC)C(=O)CN(CC(CC)CCCC)C(=O)CNC(CO)CO` (stereo not drawn) [Compound 102] (H-[N(CH(CH2OH)2)Gly][N(2-ethylhexyl)Gly][Gly(N-(3-decanoyloxypropyl))][Gly(N-(3-decanoyloxypropyl))][N(2-ethylhexyl)Gly][Gly(N-(3-decanoyloxypropyl))][Gly(N-(3-decanoyloxypropyl))]-NH2), in data set [1], the PDI was 0.123 and the “Particle Size” value is 97.8 nm. The “mean percent encapsulation of RNA” value in the data set with mRNA is reported as 47.1%. For the same compound, in the data set on firefly luciferase, the “Total Flux” value is given as 1.90E+09 p/s. This compound also displayed a hEPO in the data set with hEPO of 207 ng/mL. For the same compound, in data set [2], the “% of injected dose remaining in liver” value was found to be 0.86%. Further, in the data set on luciferase, the “IM Flux” value came out at 2.12E+08 p/s and the “SC Flux” value amounted to 1.76E+08 p/s.

Regarding `CCCCCCCCCCCC(=O)OCCCN(CC(=O)N(CC(=O)N(CC(=O)N(CCCOC(=O)CCCCCCCCCCC)CC(=O)N(CC(N)=O)CC(CC)CCCC)CC(CC)CCCC)CC(CC)CCCC)C(=O)CN(CC(CC)CCCC)C(=O)CN(C=O)CCCN1CCOCC1` (stereo not drawn) [Compound 64] (For-[Gly(N-3-morpholinopropyl)][N(2-ethylhexyl)Gly][N(3-lauroyloxypropyl)Gly][N(2-ethylhexyl)Gly][N(2-ethylhexyl)Gly][N(3-lauroyloxypropyl)Gly][N(2-ethylhexyl)Gly]-NH2), in data set [1], the PDI came to 0.096 and the “Particle Size” value was 77.8 nm. In addition, the “mean percent encapsulation of RNA” value in the data set with mRNA is listed as 67.3%. Further, the “Total Flux” value with firefly luciferase is 6.54E+08 p/s. For the same compound, the hEPO in the data set on hEPO worked out at 87 ng/mL. The “% of injected dose remaining in liver” value in data set [2] came out at 5.30%. For the same compound, in the data set with luciferase, the “IM Flux” value stood at 1.42E+08 p/s and the “SC Flux” value was found to be 1.33E+08 p/s.
